Reference: US20230312561A1, “SOLID FORMS OF (Z)-METHYL 3-(((4-(N-METHYL-2-(4-METHYLPIPERAZIN-1-YL)ACETAMIDO)PHENYL)AMINO)(PHENYL)METHYLENE)-2-OXO-2,3-DIHYDRO-1H-PYRROLO[2,3-B]PYRIDINE-6-CARBOXYLATE AND SALTS THEREOF” (Angion Biomedica Corp., priority 2020, published 2023)

How the values were obtained:
[1] = Dynamic Vapor Sorption (DVS) analysis with XRPD after equilibration; format: physicochemical; details: for moisture/water content on initial equilibration at 50% RH (DVS): beginning of analysis; for reversibility of water uptake (DVS): as relative humidity decreased
Procedure: Sorption isotherms were obtained using a Hiden Isochema moisture sorption analyzer (model IGAsorp), controlled by IGAsorp Systems Software V6.50.48. The sample was maintained at a constant temperature (25° C.) by the instrument controls. The humidity was controlled by mixing streams of dry and wet nitrogen, with a total flow of 250 mL·min^−1. The instrument was verified for relative humidity content by measuring three calibrated Rotronic salt solutions (10%, 50%, 88%). The weight change of the sample was monitored as a function of humidity by a microbalance (accuracy+/−0.005 mg). A defined amount of sample was placed in a tared mesh stainless steel basket under ambient conditions. A full experimental cycle typically consisted of three scans (sorption, desorption and sorption) at a constant temperature (25° C.) and 10% RH intervals over a 0-90% range (60 minutes for each humidity level). […]
This water content decreased as relative humidity decreased in the first desorption cycle.
The solid absorbed 3.39% water over the humidity range. […] The profile was similar to that of Form C in Example 7.2.

[2] = Drying studies of Compound 1 Hydrochloride (XRPD, TGA); format: physicochemical
Procedure: Compound 1 Hydrochloride Form A was then subjected to drying under various conditions.
Drying studies of Compound 1 Hydrochloride Form A (Type 1 Lot) were performed.
Variability in the drying profiles of different lots of Compound 1 Hydrochloride were noted, particularly with regards to the transition between Form A and Form C. The variable behavior appeared to depend upon the nature of the input Form A batch (e.g., how it was generated and then conditioned, if at all, prior to drying, and/or if excess hydrochloric acid was present).
Concentrated HCl (154 μL, 1 eqiuv) was added which clarified the suspension to a deep orange solution. The mixture was equilibrated for 30 minutes before cooling gradually to room temperature. A thin yellow suspension resulted. The solvent volume was reduced by 50% which thickened the suspension. The suspension was matured overnight, following which the solid was filtered to isolate the solids. The solid was air dried for ˜30 minutes giving a yellow solid (damp mass: 1.24 g; pH measured at 5.0). The XRPD pattern of the damp solid corresponded with Compound 1 Hydrochloride Form H. Analysis of the damp solid by DSC and TGA indicated a water content of 8.2%, which was fairly labile up ˜75° C.
Compound 1 Hydrochloride Form H was then subjected to a drying study under various conditions.
The solids were further subjected to prolonged drying.

[3] = Solid state stability under humid conditions (40° C./75% RH and 25° C./60% RH, two weeks); format: physicochemical
Procedure: Stability of Compound 1 Hydrochloride Forms A, B, C, and D was evaluated under humid conditions. Samples of Forms A, B, C, and D were stored at 40° C./75% RH and 25° C./60% RH for a period of two weeks (loosely capped glass vials with approx. 200 mg solid). Solids were then re-analyzed using methods described herein. A summary of the results is provided in Table 12 (after storage at 25° C./60% RH) and Table 13 (after storage at 40° C./75% RH).

[4] = Form stability on standing on bench or at 40° C./75% RH (XRPD); format: physicochemical
Procedure: Two samples of the solid were stored under glass with loose fitting lids on a bench and at 40° C./75% RH for a period of 5 days and re-analyzed by XRPD.
In an additional experiment, a sample of Form F was left to stand on a bench in a loosened vial for 48 hours.

[5] = Aqueous solubility of salt forms (25° C., 1, 4, 24 h); details: deionized water; for XRPD: isolated solids
Procedure: Aqueous solubility of certain salt forms was assessed. Each solid (100 mg) was charged into a crystallization tube. Deionized water (1 mL) was added to each tube to give a suspension. The mixtures were equilibrated at 25° C. for 24 hours with sampling after 1 and 4 hours' equilibration. Solids were isolated and XRPD analysis obtained.

[6] = Dry in vacuo at 25° C., T = 4 h
[7] = Dry in vacuo at 25° C., T = 24 h
[8] = Dry in vacuo at 25° C., T = 48 h
[9] = Dry in vacuo at 25° C., T = 120 h
[10] = Dry in vacuo at 45° C., T = 4 h
[11] = Dry in vacuo at 45° C., T = 24 h
[12] = Dry in vacuo at 45° C., T = 120 h
[13] = Dry in vacuo at 70° C., T = 4 h
[14] = Dry in vacuo at 70° C., T = 24 h
[15] = Dry in vacuo at 70° C., T = 120 h
[16] = Form C prepared from Form A, Type 1 Lot
[17] = Form C prepared from Form A, Type 2 Lot
[18] = under glass with loose fitting lid, 5 days
[19] = Dry in vacuo at 25° C., T = 96 h
[20] = Dry in vacuo at 45° C., T = 96 h
[21] = Dry in vacuo at 70° C., T = 96 h

Compound: COC(=O)c1ccc2c(c1)NC(=O)/C2=C(\Nc1ccc(N(C)C(=O)CN2CCN(C)CC2)cc1)c1ccccc1.Cl [Compound 1 Hydrochloride Form A (Type 2 Lot)]
- XRPD analysis following equilibration at 0% RH ([1]; 0% RH): mixture of Form A and Form C
- moisture/water content on initial equilibration at 50% RH (DVS) [1]: 6.39%
- XRPD analysis following equilibration at 90% RH ([1]; 90% RH): predominantly Form A
- uptake of water following initial equilibration at 50% RH during first desorption cycle (DVS) ([1]; first desorption cycle): −7%
- water absorbed over the humidity range, first sorption cycle (DVS) ([1]; first sorption cycle): 8.66%
- TGA (%) [2, 6]: 9.96%
- TGA (%) [2, 7]: 7.09%
- XRPD [2, 7]: Form A
- TGA (%) [2, 8]: 6.61%
- XRPD [2, 8]: Form A
- TGA (%) [2, 9]: 3.45%
- TGA (%) [2, 10]: 9.89%
- TGA (%) [2, 11]: 6.93%
- TGA (%) ([2]; Dry in vacuo at 45° C., T = 48 h): 6.63%
- TGA (%) [2, 12]: 2.27%
- TGA (%) [2, 13]: 8.93%
- TGA (%) [2, 14]: 6.49%
- TGA (%) ([2]; Dry in vacuo at 70° C., T = 48 h): 6.68%
- TGA (%) [2, 15]: 2.17%
- TGA (%) ([2]; T = 0, before drying): 14.83%
- level of hydration after extended drying ([2]; summary of drying studies, Table 10): reduced to 2-3%
- XRPD After Storage ([3]; 25° C./60% RH): Form A/C
- XRPD After Storage ([3]; 40° C./75% RH): amorphous

Compound: COC(=O)c1ccc2c(c1)NC(=O)/C2=C(\Nc1ccc(N(C)C(=O)CN2CCN(C)CC2)cc1)c1ccccc1.Cl [Compound 1 Hydrochloride Form B]
- XRPD analysis following equilibration at 0% RH ([1]; 0% RH): Form F
- moisture/water content on initial equilibration at 50% RH (DVS) [1]: 4.2%
- XRPD analysis following equilibration at 90% RH ([1]; 90% RH): Form H
- level of water reached in initial sorption step after 70% RH (DVS) ([1]; above 70% RH): 17.3%
- reversibility of water uptake (DVS) [1]: reversible
- loss of water on the initial desorption step (DVS) ([1]; initial desorption step): ~1.5%
- water content after the second desorption step (DVS) ([1]; second desorption step): 1.1%
- TGA After Storage: further loss above/post 200° C. ([3]; 25° C./60% RH): 1.41% post 200 °C
- TGA After Storage: weight reduction to 60° C. ([3]; 25° C./60% RH): Weight reduction of 1.69% to 60 °C
- XRPD After Storage ([3]; 25° C./60% RH): Form B
- TGA After Storage: further loss above/post 200° C. ([3]; 40° C./75% RH): followed by further loss of 1.4%
- TGA After Storage: weight reduction to 60° C. ([3]; 40° C./75% RH): Weight reduction of 1.0% to 60 °C
- XRPD After Storage ([3]; 40° C./75% RH): Form H

Compound: COC(=O)c1ccc2c(c1)NC(=O)/C2=C(\Nc1ccc(N(C)C(=O)CN2CCN(C)CC2)cc1)c1ccccc1.Cl [Compound 1 Hydrochloride Form C]
- XRPD analysis following equilibration at 0% RH ([1]; 0% RH): remained Form C
- XRPD analysis following equilibration at 90% RH ([1]; 90% RH): Form A
- water absorbed above 70% RH (DVS) [1, 16]: 8.38%
- water absorbed up to 70% RH, initial sorption step (DVS) [1, 16]: 1.44%
- water content reached over the humidity range on second sorption cycle (DVS) [1, 16]: 10%
- XRPD analysis following equilibration at 0% RH [1, 17]: remained Form C
- XRPD analysis following equilibration at 90% RH [1, 17]: remained Form C
- water absorbed over the humidity range (DVS) [1, 17]: 3.39%
- water absorbed up to 80% RH (DVS) [1, 17]: 1.55%
- reversibility of water uptake (DVS) [1]: reversible
- form after equilibration in water (damp solid, XRPD) ([2]; equilibrated in water for 48 hours): readily converted to Form A
- TGA After Storage: further loss above/post 200° C. ([3]; 25° C./60% RH): 0.98% post 200 °C
- XRPD After Storage ([3]; 25° C./60% RH): Form C
- TGA After Storage: further loss above/post 200° C. ([3]; 40° C./75% RH): 1.0% post 200 °C
- XRPD After Storage ([3]; 40° C./75% RH): Form C
- XRPD after storage at 40° C./75% RH [4, 18]: no change from Form C
- XRPD after storage on a bench [4, 18]: no change from Form C

Compound: COC(=O)c1ccc2c(c1)NC(=O)/C2=C(\Nc1ccc(N(C)C(=O)CN2CCN(C)CC2)cc1)c1ccccc1.Cl [Compound 1 Hydrochloride Form D]
- TGA After Storage: further loss above/post 200° C. ([3]; 25° C./60% RH): 1.51% post 200 °C
- XRPD After Storage ([3]; 25° C./60% RH): Form D
- TGA After Storage: further loss above/post 200° C. ([3]; 40° C./75% RH): 1.68% post 200 °C
- XRPD After Storage ([3]; 40° C./75% RH): Form D

Compound: COC(=O)c1ccc2c(c1)NC(=O)C2=C(Nc1ccc(N(C)C(=O)CN2CCN(C)CC2)cc1)c1ccccc1.Cl [Compound 1 Hydrochloride Form F]
- behaviour on prolonged drying ([2]; all drying temperatures (25, 45, 70° C.)): robust toward further changes
- form after standing on a bench in a loosened vial (XRPD and TGA) ([4]; 48 hours): fully converted into Form H

Compound: COC(=O)c1ccc2c(c1)NC(=O)/C2=C(\Nc1ccc(N(C)C(=O)CN2CCN(C)CC2)cc1)c1ccccc1.Cl [Compound 1 Hydrochloride Form H]
- TGA (%) [2, 6]: 0%
- XRPD [2, 6]: Form F
- XRPD [2, 7]: Form F
- TGA (%) [2, 19]: 0%
- XRPD [2, 19]: Form F
- XRPD [2, 9]: Form F
- TGA (%) [2, 10]: 0%
- XRPD [2, 10]: Form F
- XRPD [2, 11]: Form F
- TGA (%) [2, 20]: 0%
- XRPD [2, 20]: Form F
- XRPD [2, 12]: Form F
- TGA (%) [2, 13]: 0%
- XRPD [2, 13]: Form F
- XRPD [2, 14]: Form F
- TGA (%) [2, 21]: 0%
- XRPD [2, 21]: Form F
- XRPD [2, 15]: Form F
- TGA (%) ([2]; T = 0, before drying): 8.24%
- XRPD ([2]; T = 0, before drying): Form H

Compound: COC(=O)c1ccc2c(c1)NC(=O)/C2=C(\Nc1ccc(N(C)C(=O)CN2CCN(C)CC2)cc1)c1ccccc1.Cl [HCl (Form A, Type 1 Lot)]
- Solubility ([5]; t = 1 h): 70.37 mg/mL
- pH ([5]; t = 1 h): 3.34
- Solubility ([5]; t = 4 h): 50.54 mg/mL
- Solubility ([5]; t = 24 h): 52.88 mg/mL
- pH ([5]; t = 24 h): 3.28

Compound: COC(=O)c1ccc2c(c1)NC(=O)/C2=C(\Nc1ccc(N(C)C(=O)CN2CCN(C)CC2)cc1)c1ccccc1.Cl [HCl (Form A, Type 2 Lot)]
- Solubility ([5]; t = 1 h): 46.11 mg/mL
- pH ([5]; t = 1 h): 5.22
- XRPD ([5]; t = 1 h): Form A
- Solubility ([5]; t = 4 h): 43.78 mg/mL
- XRPD ([5]; t = 4 h): Form A
- Solubility ([5]; t = 24 h): 40.58 mg/mL
- pH ([5]; t = 24 h): 5.25
- XRPD ([5]; t = 24 h): Form A

Compound: Maleate
- Solubility ([5]; t = 1 h): 12.50 mg/mL
- pH ([5]; t = 1 h): 6.35
- Solubility ([5]; t = 4 h): 12.39 mg/mL
- Solubility ([5]; t = 24 h): 9.45 mg/mL
- pH ([5]; t = 24 h): 6.40

Compound: Tosylate
- Solubility ([5]; t = 1 h): 2.07 mg/mL
- pH ([5]; t = 1 h): 6.46
- Solubility ([5]; t = 4 h): 2.02 mg/mL
- Solubility ([5]; t = 24 h): 2.39 mg/mL
- pH ([5]; t = 24 h): 6.66
